Results: ChEMBL document CHEMBL5052852, “Substituted hydantoinamides as adamts7 antagonists” (2021)

Assays:
[1] = Inhibition of recombinant rat/human ADAMTS12 hybrid using HiLyteFluor-488 DELSSMVLELRGLRT-K(QXL520)-E-NH2 as substrate incubated for 120 mins and measured by FRET assay
[2] = Inhibition of recombinant rat/human ADAMTS7 hybrid using HiLyteFluor-488 DELSSMVLELRGLRT-K(QXL520)-E-NH2 as substrate incubated for 120 mins and measured by FRET assay

SMILES	IC50 [1] [nM]	IC50 [2] [nM]
N#Cc1ccc(-n2ncc(C(=O)NC[C@@]3(C4CC4)NC(=O)NC3=O)n2)cc1	17000	40
O=C1NC(=O)[C@](CNC(=O)c2cnn(-c3ccc(C(F)(F)F)c(F)c3)n2)(C2CC2)N1	4600	120
O=C1NC(=O)[C@](CNC(=O)c2coc(-c3ccc(F)cc3)n2)(C2CC2)N1	1700	55
O=C1NC(=O)[C@](CNC(=O)c2cnn(-c3ccccc3F)n2)(C2CC2)N1	7600	180
O=C1NC(=O)[C@](CNC(=O)c2cnn(-c3cc(F)ccc3F)n2)(C2CC2)N1	5500	110
O=C1NC(=O)[C@](CNC(=O)c2cnn(-c3ccccn3)n2)(C2CC2)N1	7650	98
O=C1NC(=O)C(CNC(=O)c2cnn(-c3ccc(F)c(F)c3)n2)(C2CCC2)N1 (stereo unspecified)	890	6
COc1ccc(-n2ncc(C(=O)NC[C@@]3(C4CC4)NC(=O)NC3=O)n2)cc1	6000	100
O=C1NC(=O)[C@](CNC(=O)c2cnn(-c3nc4ccccc4s3)n2)(C2CC2)N1	11000	190
Cc1cccc(-n2ncc(C(=O)NC[C@@]3(C4CC4)NC(=O)NC3=O)n2)c1	2200	170
O=C1NC(=O)[C@](CNC(=O)c2cnn(-c3ccccc3)c2)(C2CC2)N1	1800	129
O=C1NC(=O)[C@](CNC(=O)c2nnc(-c3ccc(F)cc3)o2)(C2CC2)N1	12000	350
O=C1NC(=O)C(CNC(=O)c2cnn(-c3ccc(F)cc3)n2)(C2CCCCC2)N1 (stereo unspecified)	4100	14
Cn1cc(-c2cc(C(=O)NC[C@@]3(C4CC4)NC(=O)NC3=O)on2)cn1	4690	52
O=C1NC(=O)[C@](CNC(=O)c2cnn(-c3ccc(F)cc3)n2)(C2CC2)N1	1420	26
CC(CO)C1(CNC(=O)c2cnn(-c3ccccc3)n2)NC(=O)NC1=O (stereo unspecified)	17000	190
O=C1NC(=O)[C@](CNC(=O)c2cc(-c3cnn(CC4CC4)c3)no2)(C2CC2)N1	50000	550
O=C1NC(=O)[C@](CNC(=O)c2cnn(-c3ccc(Cl)c(Cl)c3)n2)(C2CC2)N1	910	35
CS(=O)(=O)c1ccc(-n2ncc(C(=O)NC[C@@]3(C4CC4)NC(=O)NC3=O)n2)cc1	67000	870

SMILES	IC50 [1] [nM]	IC50 [2] [nM]
O=C1NC(=O)C(CNC(=O)c2nc(-c3ccccc3)no2)(CC2CC2)N1 (stereo unspecified)	2900	250
C[C@@H](NC(=O)c1cnn(-c2ccccc2)n1)C1(C2CC2)NC(=O)NC1=O (stereo partly specified)	50000	710
O=C1NC(=O)C(CNC(=O)c2cnn(-c3ccc(Cl)cc3)n2)(C2CCC2)N1 (stereo unspecified)	980	10
O=C1NC(=O)[C@](CNC(=O)c2cnn(-c3cnsc3)n2)(C2CC2)N1	7400	230
O=C1NC(=O)C(CNC(=O)c2cnn(-c3cccc(Cl)c3)n2)(C2CCC2)N1 (stereo unspecified)	2200	48
O=C1NC(=O)[C@](CNC(=O)c2cnn(-c3cccc(F)c3)n2)(C2CC2)N1	580	13
Cc1ccccc1-n1ncc(C(=O)NC[C@@]2(C3CC3)NC(=O)NC2=O)n1	12000	980
O=C1NC(=O)[C@](CNC(=O)c2cnn(-c3ccc(F)c(Cl)c3)n2)(C2CC2)N1	250	5
O=C1NC(=O)[C@](CNC(=O)c2cnn(-c3ccccc3Cl)n2)(C2CC2)N1	10000	470
CC(C)(C)CC1(CNC(=O)c2cnn(-c3ccccc3)n2)NC(=O)NC1=O (stereo unspecified)	5000	250
O=C1NC(=O)[C@](CNC(=O)c2cnn(-c3cc(F)c(F)c(F)c3)n2)(C2CC2)N1	1100	25
O=C1NC(=O)C(CNC(=O)c2cnn(-c3ccc(Cl)c(F)c3)n2)(C2CCC2)N1 (stereo unspecified)	975	6
O=C1NC(=O)C(CNC(=O)c2cnn(-c3cccc(F)c3)n2)(C2CCC2)N1 (stereo unspecified)	2200	8
O=C1NC(=O)[C@](CNC(=O)c2cnn(-c3ccccc3)n2)(C2CC2)N1	1450	69
Cc1ccc(-n2ncc(C(=O)NC[C@@]3(C4CC4)NC(=O)NC3=O)n2)cc1	950	47
O=C1NC(=O)[C@](CNC(=O)c2cnn(-c3ccc(Br)cc3)n2)(C2CC2)N1	1400	58
O=C1NC(=O)[C@](CNC(=O)c2cnn(-c3ccc(F)cn3)n2)(C2CC2)N1	4750	140
O=C1NC(=O)C(CNC(=O)c2cnn(-c3cc(F)c(F)c(F)c3)n2)(C2CCC2)N1 (stereo unspecified)	3100	16
O=C1NC(=O)[C@](CNC(=O)c2cnn(-c3ncccc3F)n2)(C2CC2)N1	14000	7

SMILES	IC50 [1] [nM]	IC50 [2] [nM]
O=C1NC(=O)[C@](CNC(=O)c2cnn(-c3cccc(Cl)c3)n2)(C2CC2)N1	450	21
O=C1NC(=O)[C@](CNC(=O)c2cnn(-c3ccc(F)cc3F)n2)(C2CC2)N1	4250	41
O=C1NC(=O)[C@](CNC(=O)c2cnn(-c3ccc(Cl)c(F)c3)n2)(C2CC2)N1	500	12
O=C1NC(=O)C(CNC(=O)c2cnn(-c3ccc(F)cc3F)n2)(C2CCC2)N1 (stereo unspecified)	8500	63
N#Cc1cccc(-n2ncc(C(=O)NC[C@@]3(C4CC4)NC(=O)NC3=O)n2)c1	600	32
O=C1NC(=O)C(CNC(=O)c2cnn(-c3ccc(F)c(F)c3)n2)(c2nccs2)N1 (stereo unspecified)	310	7
O=C1NC(=O)[C@](CNC(=O)c2cnn(-c3ccc(Cl)cc3)n2)(C2CC2)N1	480	26
O=C1NC(=O)[C@](CNC(=O)c2cnn(-c3ccc(OC(F)(F)F)cc3)n2)(C2CC2)N1	> 50000	190
C[C@H](NC(=O)c1cnn(-c2ccccc2)n1)C1(C2CC2)NC(=O)NC1=O (stereo partly specified)	25000	980
O=C1NC(=O)[C@](CNC(=O)c2cnn(-c3cnccn3)n2)(C2CC2)N1	24000	355
O=C1NC(=O)[C@](CNC(=O)c2cnn(-c3cccc(F)c3F)n2)(C2CC2)N1	3100	74
N#Cc1cccc(-n2ncc(C(=O)NCC3(C4CCC4)NC(=O)NC3=O)n2)c1 (stereo unspecified)	4000	78
O=C1NC(=O)C(CNC(=O)c2cnn(-c3ccc(F)c(Cl)c3)n2)(C2CCC2)N1 (stereo unspecified)	1800	18
O=C1NC(=O)[C@](CNC(=O)c2cnc(-c3ccccc3)o2)(C2CC2)N1	11300	550
CC(C)C1(CNC(=O)c2cnn(-c3ccc(F)c(Cl)c3)n2)NC(=O)NC1=O (stereo unspecified)	12000	190
O=C1NC(=O)[C@](CNC(=O)c2cnn(-c3ccc(F)c(F)c3)n2)(C2CC2)N1	175	7
Cn1ccnc1C1(CNC(=O)c2cnn(-c3ccccc3)n2)NC(=O)NC1=O (stereo in doubt)	320	–
CC(C)C1(CNC(=O)c2cnn(-c3ccc(F)cc3F)n2)NC(=O)NC1=O (stereo in doubt)	13000	–
O=C1NC(=O)C(CNC(=O)c2cnn(-c3ccc(F)cc3)n2)(c2ccccn2)N1 (stereo in doubt; form 1)	1900	–
